From US12473304B2, “Heterocyclic PAD4 inhibitors” (BRISTOL-MYERS SQUIBB COMPANY, priority 2020, dated 2025)

Molecular target: human PAD4 (hPAD4) (Homo sapiens (Human), UniProt Q9UM07)
Assay: RFMS Human PAD4 Functional Assay 1
Assay type: biochemical
Details: RFMS assay 1; 5 nM hPAD4, 250 μM BAEE substrate, 50 μM calcium, 37° C.
How it was run: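 Citrullination product read by RapidFire triple-quad MRM against a modified-citrulline internal standard, after TCA stop and 30 min phenyl glyoxal step at 37 °C. Reaction: 250 μM BAEE, 5 nM human PAD4, 90 min at 37 °C, pH 7.5 HEPES buffer with 50 μM calcium and 5 μM TPEN, following 30 min compound–enzyme preincubation (max 50 μM).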

human PAD4 (hPAD4), sequence (Q9UM07 whole entry): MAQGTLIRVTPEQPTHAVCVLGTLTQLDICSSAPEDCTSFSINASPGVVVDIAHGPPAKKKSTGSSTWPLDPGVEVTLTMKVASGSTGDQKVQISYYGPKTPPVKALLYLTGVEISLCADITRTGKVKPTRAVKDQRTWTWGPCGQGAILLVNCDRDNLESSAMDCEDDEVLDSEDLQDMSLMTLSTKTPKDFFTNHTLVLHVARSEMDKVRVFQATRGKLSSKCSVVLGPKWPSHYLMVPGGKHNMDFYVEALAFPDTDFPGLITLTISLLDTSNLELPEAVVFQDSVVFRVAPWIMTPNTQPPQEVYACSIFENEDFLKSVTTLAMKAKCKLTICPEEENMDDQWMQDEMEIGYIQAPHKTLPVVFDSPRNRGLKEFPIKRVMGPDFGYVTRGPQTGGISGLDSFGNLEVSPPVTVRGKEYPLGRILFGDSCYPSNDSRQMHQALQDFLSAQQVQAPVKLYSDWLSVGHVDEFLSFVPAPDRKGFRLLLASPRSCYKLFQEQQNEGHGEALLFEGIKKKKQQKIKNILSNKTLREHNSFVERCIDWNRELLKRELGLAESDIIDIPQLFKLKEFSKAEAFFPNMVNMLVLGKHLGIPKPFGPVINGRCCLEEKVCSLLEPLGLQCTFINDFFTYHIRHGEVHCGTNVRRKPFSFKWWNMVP

| SMILES | IC50 [nM] |
| --- | --- |
| Cc1c(-c2cc3ccc(N4CCC[C@@H](O)C4)nc3n2CC2CC2)nn2cc(C(=O)N3CC4CCC3[C@@H]4N)cc(F)c12 (stereo partly drawn) [Example 265, ((7R)-7-Amino-2-azabicyclo[2.2.1]heptan-2-yl)(2-(1-(cyclopropylmethyl)-6-((R)-3-hydroxypiperidin-1-yl)-1H-pyrrolo[2,3-b]pyridin-2-yl)-4-fluoro-3-methylpyrazolo[1,5-a]pyridin-6-yl)methanone] | 110 |
| Cc1c(-c2cc3ccc(N4CCOCC4)nc3n2CC2CC2)nn2cc(C(=O)N3CC4CCC3[C@@H]4N)cc(F)c12 (stereo partly drawn) [Example 266, (7R)-2-{2-[1-(Cyclopropylmethyl)-6-(morpholin-4-yl)-1H-pyrrolo[2,3-b]pyridin-2-yl]-4-fluoro-3-methylpyrazolo[1,5-a]pyridine-6-carbonyl}-2-azabicyclo[2.2.1]heptan-7-amine] | 280 |
| Cc1c(-c2cc3ccc(N4CCOCC4=O)nc3n2CC2CC2)nn2cc(C(=O)N3CC4CCC3[C@@H]4N)cc(F)c12 (stereo partly drawn) [Example 267, 4-(2-{6-[(7R)-7-Amino-2-azabicyclo[2.2.1]heptane-2-carbonyl]-4-fluoro-3-methylpyrazolo[1,5-a]pyridin-2-yl}-1-(cyclopropylmethyl)-1H-pyrrolo[2,3-b]pyridin-6-yl)morpholin-3-one] | 50 |
| Cc1c(-c2cc3ccc(N4CCC(S(C)(=O)=O)CC4)nc3n2CC2CC2)nn2cc(C(=O)N3CC4CCC3[C@@H]4N)cc(F)c12 (stereo partly drawn) [Example 268, (7R)-2-{2-[1-(Cyclopropylmethyl)-6-(4-methanesulfonylpiperidin-1-yl)-1H-pyrrolo[2,3-b]pyridin-2-yl]-4-fluoro-3-methylpyrazolo[1,5-a]pyridine-6-carbonyl}-2-azabicyclo[2.2.1]heptan-7-amine] | 40 |
| Cc1c(-c2cc3ccc(N4CCC5(CC4)CN(C)C(=O)O5)nc3n2CC2CC2)nn2cc(C(=O)N3CCC[C@@H](N)C3)cc(F)c12 [Example 269, 8-(2-{6-[(3R)-3-Aminopiperidine-1-carbonyl]-4-fluoro-3-methylpyrazolo[1,5-a]pyridin-2-yl}-1-(cyclopropylmethyl)-1H-pyrrolo[2,3-b]pyridin-6-yl)-3-methyl-1-oxa-3,8-diazaspiro[4.5]decan-2-one] | 540 |
| Cc1c(-c2cc3ccc(N4CCC(S(C)(=O)=O)CC4)nc3n2CC2CC2)nn2cc(C(=O)N3CCC[C@@H](N)C3)cc(F)c12 [Example 270, (3R)-1-{2-[1-(Cyclopropylmethyl)-6-(4-methanesulfonylpiperidin-1-yl)-1H-pyrrolo[2,3-b]pyridin-2-yl]-4-fluoro-3-methylpyrazolo[1,5-a]pyridine-6-carbonyl}piperidin-3-amine] | 2110 |
| CC(=O)N(C)C1CCN(c2ccc3cc(-c4nn5cc(C(=O)N6CCC[C@@H](N)C6)cc(F)c5c4C)n(CC4CC4)c3n2)CC1 [Example 271, N-[1-(2-{6-[(3R)-3-Aminopiperidine-1-carbonyl]-4-fluoro-3-methylpyrazolo[1,5-a]pyridin-2-yl}-1-(cyclopropylmethyl)-1H-pyrrolo[2,3-b]pyridin-6-yl)piperidin-4-yl]-N-methylacetamide] | 2070 |
| COC(=O)N(C)C1CCN(c2ccc3cc(-c4nn5cc(C(=O)N6CCC[C@@H](N)C6)cc(F)c5c4C)n(CC4CC4)c3n2)CC1 [Example 272, Methyl N-[1-(2-{6-[(3R)-3-aminopiperidine-1-carbonyl]-4-fluoro-3-methylpyrazolo[1,5-a]pyridin-2-yl}-1-(cyclopropylmethyl)-1H-pyrrolo[2,3-b]pyridin-6-yl)piperidin-4-yl]-N-methylcarbamate] | 3810 |
| Cc1c(-c2cc3ccc(N4CCC(N5CCCC5=O)CC4)nc3n2CC2CC2)nn2cc(C(=O)N3CCC[C@@H](N)C3)cc(F)c12 [Example 273, 1-[1-(2-{6-[(3R)-3-Aminopiperidine-1-carbonyl]-4-fluoro-3-methylpyrazolo[1,5-a]pyridin-2-yl}-1-(cyclopropylmethyl)-1H-pyrrolo[2,3-b]pyridin-6-yl)piperidin-4-yl]pyrrolidin-2-one] | 2420 |
| Cc1c(-c2cc3ccc(OC[C@@H]4CCC(=O)N4)nc3n2CC2CC2)nn2cc(C(=O)N3CC4CCC3[C@@H]4N)cc(F)c12 (stereo partly drawn) [Example 274, (5S)-5-{[(2-{6-[(7R)-7-Amino-2-azabicyclo[2.2.1]heptane-2-carbonyl]-4-fluoro-3-methylpyrazolo[1,5-a]pyridin-2-yl}-1-(cyclopropylmethyl)-1H-pyrrolo[2,3-b]pyridin-6-yl)oxy]methyl}pyrrolidin-2-one] | 270 |
| COC1CCN(c2ccc3cc(-c4nn5cc(C(=O)N6CCC[C@@H](N)C6)cc(Cl)c5c4C)n(CC4CC4)c3n2)CC1 [Example 276, (3R)-1-{4-Chloro-2-[1-(cyclopropylmethyl)-6-(4-methoxypiperidin-1-yl)-1H-pyrrolo[2,3-b]pyridin-2-yl]-3-methylpyrazolo[1,5-a]pyridine-6-carbonyl}piperidin-3-amine] | 2770 |

Continued, values first:

| IC50 [nM] | SMILES |
| --- | --- |
| 220 | Cc1cc(C(N)=O)c(F)cc1-c1ccc2cc(-c3nn4cc(C(=O)N5CCC[C@@H](N)C5)cc(F)c4c3C)n(CC3CC3)c2n1 [Example 277, 4-(2-{6-[(3R)-3-Aminopiperidine-1-carbonyl]-4-fluoro-3-methylpyrazolo[1,5-a]pyridin-2-yl}-1-(cyclopropylmethyl)-1H-pyrrolo[2,3-b]pyridin-6-yl)-2-fluoro-5-methylbenzamide] |
| 390 | Cc1c(-c2cc3ccc(-c4cccc(O)c4Cl)nc3n2CC2CC2)nn2cc(C(=O)N3CCC[C@@H](N)C3)cc(F)c12 [Example 278, 3-(2-{6-[(3R)-3-Aminopiperidine-1-carbonyl]-4-fluoro-3-methylpyrazolo[1,5-a]pyridin-2-yl}-1-(cyclopropylmethyl)-1H-pyrrolo[2,3-b]pyridin-6-yl)-2-chlorophenol] |
| 200 | Cc1c(-c2cc3ccc(-c4ccc(C(N)=O)c(F)c4)nc3n2CC2CC2)nn2cc(C(=O)N3CCC[C@@H](N)C3)cc(F)c12 [Example 279, 4-(2-{6-[(3R)-3-Aminopiperidine-1-carbonyl]-4-fluoro-3-methylpyrazolo[1,5-a]pyridin-2-yl}-1-(cyclopropylmethyl)-1H-pyrrolo[2,3-b]pyridin-6-yl)-2-fluorobenzamide] |
| 1090 | Cc1c(-c2cc3ccc(-c4ccc(N5CCNC5=O)cc4)nc3n2CC2CC2)nn2cc(C(=O)N3CCC[C@@H](N)C3)cc(F)c12 [Example 280, 1-[4-(2-{6-[(3R)-3-Aminopiperidine-1-carbonyl]-4-fluoro-3-methylpyrazolo[1,5-a]pyridin-2-yl}-1-(cyclopropylmethyl)-1H-pyrrolo[2,3-b]pyridin-6-yl)phenyl]imidazolidin-2-one] |
| 140 | Cc1c(-c2cc3ccc(-c4ccccc4N4CCNC4=O)nc3n2CC2CC2)nn2cc(C(=O)N3CCC[C@@H](N)C3)cc(F)c12 [Example 281, 1-[2-(2-{6-[(3R)-3-Aminopiperidine-1-carbonyl]-4-fluoro-3-methylpyrazolo[1,5-a]pyridin-2-yl}-1-(cyclopropylmethyl)-1H-pyrrolo[2,3-b]pyridin-6-yl)phenyl]imidazolidin-2-one] |
| 170 | Cc1c(O)cccc1-c1ccc2cc(-c3nn4cc(C(=O)N5CCC[C@@H](N)C5)cc(F)c4c3C)n(CC3CC3)c2n1 [Example 282, 3-(2-{6-[(3R)-3-Aminopiperidine-1-carbonyl]-4-fluoro-3-methylpyrazolo[1,5-a]pyridin-2-yl}-1-(cyclopropylmethyl)-1H-pyrrolo[2,3-b]pyridin-6-yl)-2-methylphenol] |
| 330 | Cc1c(-c2cc3ccc(-c4cccc(O)c4F)nc3n2CC2CC2)nn2cc(C(=O)N3CCC[C@@H](N)C3)cc(F)c12 [Example 283, 3-(2-{6-[(3R)-3-Aminopiperidine-1-carbonyl]-4-fluoro-3-methylpyrazolo[1,5-a]pyridin-2-yl}-1-(cyclopropylmethyl)-1H-pyrrolo[2,3-b]pyridin-6-yl)-2-fluorophenol] |
| 1860 | Cc1c(-c2cc3ccc(-c4ccc5c(c4)CNC5=O)nc3n2CC2CC2)nn2cc(C(=O)N3CCC[C@@H](N)C3)cc(F)c12 [Example 284, 5-(2-{6-[(3R)-3-Aminopiperidine-1-carbonyl]-4-fluoro-3-methylpyrazolo[1,5-a]pyridin-2-yl}-1-(cyclopropylmethyl)-1H-pyrrolo[2,3-b]pyridin-6-yl)-2,3-dihydro-1H-isoindol-1-one] |
| 1270 | Cc1c(-c2cc3ccc(-c4ccc5c(c4)C(=O)NC5)nc3n2CC2CC2)nn2cc(C(=O)N3CCC[C@@H](N)C3)cc(F)c12 [Example 285, 6-(2-{6-[(3R)-3-Aminopiperidine-1-carbonyl]-4-fluoro-3-methylpyrazolo[1,5-a]pyridin-2-yl}-1-(cyclopropylmethyl)-1H-pyrrolo[2,3-b]pyridin-6-yl)-2,3-dihydro-1H-isoindol-1-one] |
| 540 | Cc1cc(-c2ccc3cc(-c4nn5cc(C(=O)N6CCC[C@@H](N)C6)cc(F)c5c4C)n(CC4CC4)c3n2)ccc1C(N)=O [Example 286, 4-(2-{6-[(3R)-3-Aminopiperidine-1-carbonyl]-4-fluoro-3-methylpyrazolo[1,5-a]pyridin-2-yl}-1-(cyclopropylmethyl)-1H-pyrrolo[2,3-b]pyridin-6-yl)-2-methylbenzamide] |
| 1280 | CNC(=O)c1ccc(-c2ccc3cc(-c4nn5cc(C(=O)N6CCC[C@@H](N)C6)cc(F)c5c4C)n(CC4CC4)c3n2)cn1 [Example 287, 5-(2-{6-[(3R)-3-Aminopiperidine-1-carbonyl]-4-fluoro-3-methylpyrazolo[1,5-a]pyridin-2-yl}-1-(cyclopropylmethyl)-1H-pyrrolo[2,3-b]pyridin-6-yl)-N-methylpyridine-2-carboxamide] |
| 80 | Cc1c(-c2cc3ccc(-c4ccn5c(C)nnc5c4)nc3n2CC2CC2)nn2cc(C(=O)N3CCC[C@@H](N)C3)cc(F)c12 [Example 288, (3R)-1-{2-[1-(Cyclopropylmethyl)-6-{3-methyl-[1,2,4]triazolo[4,3-a]pyridin-7-yl}-1H-pyrrolo[2,3-b]pyridin-2-yl]-4-fluoro-3-methylpyrazolo[1,5-a]pyridine-6-carbonyl}piperidin-3-amine] |
